Results taken from patent publication US5714363A, “Deacetoxycephalosporin C hydroxylase” (priority 1992, dated 1998).
Counter-ions that a name gives are not always drawn. Like-named read-outs stand apart in the source and are kept apart here.

What was measured:
[1] = biological target: T1, DAOC hydroxylase (Streptomyces clavuligerus, UniProt P42220); assay: DAOC hydroxylase activity assay (DAC formation from DAOC, HPLC at 260 nm); type: biochemical; design: The highly purified native enzyme (92% purity) has a molecular weight of 35,000 dalton; endogenous in cells; host or cells: Streptomyces clavuligerus cells (native producer; NRRL 18491 is named as preferred strain), enzyme purified from cell-free extract; details: for replacement of ferrous ion for enzymatic activity: ion in place of Fe2+; for stimulation of catalytic activity: with Fe2+, α-ketoglutarate and O2; for Relative Activity (%): no additive = 100; for reduction in enzyme activity: substitution of MOPS buffer at optimal pH; for drop of maximum catalytic activity when not present: external ferrous ion, DTT and ascorbate both absent
T1 sequence (P42220 1-318): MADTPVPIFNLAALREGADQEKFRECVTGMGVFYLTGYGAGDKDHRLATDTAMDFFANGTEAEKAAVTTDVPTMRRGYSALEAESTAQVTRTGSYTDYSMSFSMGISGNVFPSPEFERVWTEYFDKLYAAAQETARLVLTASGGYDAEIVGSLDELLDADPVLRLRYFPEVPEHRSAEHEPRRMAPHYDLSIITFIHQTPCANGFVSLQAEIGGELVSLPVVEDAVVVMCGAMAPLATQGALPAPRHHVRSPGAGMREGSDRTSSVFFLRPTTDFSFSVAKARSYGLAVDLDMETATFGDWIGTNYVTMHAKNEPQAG
Protocol: (§1) The activity of the DAOC hydroxylase is determined throughout the process by the following assay method. The hydroxylase activity was determined by monitoring DAC formation from DAOC at 260 nm with HPLC as described by Dotzlaf, J. E., and Yeh, W.-K. (1987) J. Bacteriol., 169, 1611-1618. […] The enzymatic reaction is initiated by adding the DAOC and the reaction is conducted for 20 minutes at 29° C. DAC formation is linear with reaction time for up to 40 minutes. One unit of enzyme activity is defined as the amount of hydroxylase required to cause formation of one μmol of DAC per minute from DAOC under the above-described assay conditions.
The specific activity of the hydroxylase is defined as units per milligram of protein.

[2] = biological target: T1, DAOC hydroxylase; assay: Substrate specificity of purified DAOC hydroxylase; type: biochemical; design: The highly purified native enzyme (92% purity) has a molecular weight of 35,000 dalton; endogenous in cells; host or cells: Streptomyces clavuligerus cells (native producer; NRRL 18491 is named as preferred strain), enzyme purified from cell-free extract; details: for Sp. Activity (mU/mg) / Relative Activity (%): compound as substrate; for Relative Activity (%): relative to DAOC = 100; for effectiveness as substrate: conditions for optimal catalysis; for Vmax (Percent Catalytic Activities, relative Vmax): relative to DAOC to DAC = 100, substrate of the reaction
Protocol: Several compounds were evaluated as substrates for the purified enzyme to determine its substrate specificity. The compounds evaluated and the results are shown below in TABLE 4. The results were obtained by EPLC analysis.
as §1

[3] = Protocol: The DAOC hydroxylase is recognized as unstable and, accordingly, was difficult to isolate and obtain in a high state of purity from cell-free extracts.
The process of this invention comprises the use of a hydroxylase stabilizing buffer which is used both in the preparation of crude cell-free extracts of the enzyme and during the isolation and purification thereof. The stabilizing buffer, referred to herein as buffer A, comprises 15 mM MOPS buffer, pH 7.3, containing 1 mM uric acid, 1 mM mannitol and 0.1M KCl.

[4] = biological target: T1, DAOC hydroxylase; assay: Kinetic parameters of DAOC hydroxylase (Lineweaver-Burk)
Protocol: as §1, with “DAC formation is linear with reaction time for up to 40 minutes.” left out

[5] = biological target: T1, DAOC hydroxylase; assay: Stoichiometry of DAOC to DAC conversion; type: biochemical; design: The highly purified native enzyme (92% purity) has a molecular weight of 35,000 dalton; endogenous in cells; host or cells: Streptomyces clavuligerus cells (native producer; NRRL 18491 is named as preferred strain), enzyme purified from cell-free extract
Protocol: The stoichiometry of the hydroxylase conversion of DAOC to DAC was determined. The molar ratio for DAC-formation/DAOC-disappearance during a 3 h reaction remained in the range of 0.91-1.00 as shown by the plot in FIG. 2. The conversion of DAOC to DAC was only partially complete (58%) under the reaction conditions.

[6] = substrate: CC1=C(C(=O)O)N2C(=O)[C@@H](NC(=O)CCC[C@@H](N)C(=O)O)[C@H]2SC1; assay: purified protein, by the assay type; details: other: saturated concentration of the other substrate (300 μM DAOC or α-KG); pH 7.3; 29.0 °C
[7] = substrate: O=C(O)CCC(=O)C(=O)O; assay: purified protein, by the assay type; details: other: saturated concentration of the other substrate (300 μM DAOC or α-KG); pH 7.3; 29.0 °C

## [Mg+2] [Mg^2+]
[1]
  replacement of ferrous ion for enzymatic activity: not replaceable

## [K+] [potassium]
[1]
  replacement of ferrous ion for enzymatic activity: not replaceable

## [Co+2] [Co^2+]
[1]
  replacement of ferrous ion for enzymatic activity: not replaceable

## C=C1CS[C@@H]2[C@H](NC(=O)CCC[C@@H](N)C(=O)O)C(=O)N2C1C(=O)O (stereo partly drawn) [EMCC, 7β-(D-α-aminoadipamido)-3-exomethylenecepham-4-carboxylic acid]
[2]
  Sp. Activity (mU/mg): 58.1 mU/mg
  Relative Activity (%): 36.5%
  effectiveness as substrate: fairly efficient
  Vmax (Percent Catalytic Activities, relative Vmax): 37%

## CC1=C(C(=O)O)N2C(=O)[C@@H](NC(=O)CCC[C@@H](N)C(=O)O)[C@H]2CC1 [Carba-DAOC, 1carba(1-dethia)deacetoxycephalosporin C]
[2]
  Sp. Activity (mU/mg): 3.0 mU/mg
  Relative Activity (%): 1.9%
  effectiveness as substrate: did not serve as effective substrates

## [Na+] [sodium]
[1]
  replacement of ferrous ion for enzymatic activity: not replaceable

## N[C@@H](CCC(=O)N[C@@H](CS)C(=O)NCC(=O)O)C(=O)O [Reduced glutathione]
[1]
  stimulation of catalytic activity: as effective

## CCO [ethyl alcohol]
[3]
  effect on the stability of the hydroxylase: no effect

## [Fe+2] [ferrous ion]
[4]; activator ferrous ion
  Ka of the hydroxylase: 20 µM
[1]; no external Fe2+
  enzymatic activity without external Fe2+: 2 % of maximum

## O=C(O)c1cc(SSc2ccc([N+](=O)[O-])c(C(=O)O)c2)ccc1[N+](=O)[O-] [DTNB, 5,5'-dithiobis2-nitrobenzoic acid]
[1]; additive 1 mM
  Relative Activity (%): 0%

## O=S(=O)(F)Cc1ccccc1 [phenylmethylsulfonyl fluoride]
[3]; added during preparation of the extracts
  effect on the stability of the hydroxylase: no effect

## [Cu+2] [Cu^2+]
[1]
  replacement of ferrous ion for enzymatic activity: not replaceable

## OCCS [β-Mercaptoethanol]
[1]
  stimulation of catalytic activity: little stimulating effect

## O=S(=O)(O)CCN1CCN(CCO)CC1 [HEPES buffer]
[1]
  reduction in enzyme activity: 7%

## O=C(O)CI [Iodoacetic acid]
[1]; additive 1 mM
  Relative Activity (%): 59%

## [Mn+2] [Mn^2+]
[1]
  replacement of ferrous ion for enzymatic activity: not replaceable

## [Fe+3] [ferric ion]
[1]
  replacement of ferrous ion for enzymatic activity: can replace ferrous ion with retention of maximum activity

## O[C@H](CS)[C@H](O)CS (racemic) [DTT, dithiothreitol]
[1]
  drop of maximum catalytic activity when not present: ~80%
  stimulation of catalytic activity: stimulated

## [Ca+2] [Ca^2+]
[1]
  replacement of ferrous ion for enzymatic activity: not replaceable

## CC1=C(C(=O)O)N2C(=O)[C@@H](NC(=O)CCC[C@@H](N)C(=O)O)[C@H]2SC1 [DAOC, deacetoxycephalosporin C]
[2]
  Sp. Activity (mU/mg): 159.2 mU/mg
  Relative Activity (%): 100%
  Vmax (Percent Catalytic Activities, relative Vmax): 100%
[5]; 3 h reaction
  conversion of DAOC to DAC: 58%
[5]; during a 3 h reaction
  molar ratio DAC-formation/DAOC-disappearance: 0.91-1.00

## Nc1ncnc2c1ncn2[C@@H]1O[C@H](COP(=O)(O)OP(=O)(O)OP(=O)(O)O)[C@@H](O)[C@H]1O [ATP]
[1]
  stimulation of catalytic activity: not

## CCN1C(=O)C=CC1=O [NEM, Nethylmaleimide]
[1]; additive 1 mM
  Relative Activity (%): 24%

## CC1(C)S[C@@H]2[C@H](NC(=O)CCC[C@@H](N)C(=O)O)C(=O)N2[C@H]1C(=O)O [Penicillin N, penicillin N]
[2]
  effectiveness as substrate: weak catalytic activity
  Vmax (Percent Catalytic Activities, relative Vmax): 1.4%

## [Ni+2] [Ni^2+]
[1]
  replacement of ferrous ion for enzymatic activity: not replaceable

## O=C1O[C@H]([C@@H](O)CO)C(O)=C1O [ascorbate]
[1]
  drop of maximum catalytic activity when not present: ~80%

## CC1=C(C(=O)O)N2C(=O)[C@@H](NC(=O)CCC[C@H](N)C(=O)O)[C@H]2SC1 [Iso-DAOC, 7β-(Lα-aminoadipamido)-3-methyl-3-cephem-4-carboxylic acid]
[2]
  Sp. Activity (mU/mg): 1.3 mU/mg
  Relative Activity (%): 0.8%
  effectiveness as substrate: did not serve as effective substrates

## O=C(O)CN(CCN(CC(=O)O)CC(=O)O)CC(=O)O [EDTA, ethylenediamine tetraacetic acid]
[1]; additive 0.05 mM
  Relative Activity (%): 16%
[1]; additive 0.5 mM
  Relative Activity (%): 0%

## NC(CO)(CO)CO [Tris-HCl buffer]
[1]
  reduction in enzyme activity: 27%

## [Zn+2] [Zn^2+]
[1]
  replacement of ferrous ion for enzymatic activity: not replaceable

## c1cnc2c(c1)ccc1cccnc12 [o-Phenanthroline]
[1]; additive 0.05 mM
  Relative Activity (%): 81%
[1]; additive 0.5 mM
  Relative Activity (%): 0%

B1: DAOC hydroxylase (Streptomyces clavuligerus) (protein)
chain: MADTPVPIFNLAALREGADQEKFRECVTGMGVFYLTGYGAGDKDHRLATDTAMDFFANGTEAEKAAVTTDVPTMRRGYSALEAESTAQVTRTGSYTDYSMSFSMGISGNVFPSPEFERVWTEYFDKLYAAAQETARLVLTASGGYDAEIVGSLDELLDADPVLRLRYFPEVPEHRSAEHEPRRMAPHYDLSIITFIHQTPCANGFVSLQAEIGGELVSLPVVEDAVVVMCGAMAPLATQGALPAPRHHVRSPGAGMREGSDRTSSVFFLRPTTDFSFSVAKARSYGLAVDLDMETATFGDWIGTNYVTMHAKNEPQAG
[6]
  Km: 50 µM
[7]
  Km: 10 µM

B2: DAOC hydroxylase: enzyme from Streptomyces clavuligerus converting DAOC to DAC; monomeric, about 35,000 dalton (protein, UniProt P42220 2-318, looked up)
Deacetoxycephalosporin C …: ADTPVPIFNLAALREGADQEKFRECVTGMGVFYLTGYGAGDKDHRLATDTAMDFFANGTEAEKAAVTTDVPTMRRGYSALEAESTAQVTRTGSYTDYSMSFSMGISGNVFPSPEFERVWTEYFDKLYAAAQETARLVLTASGGYDAEIVGSLDELLDADPVLRLRYFPEVPEHRSAEHEPRRMAPHYDLSIITFIHQTPCANGFVSLQAEIGGELVSLPVVEDAVVVMCGAMAPLATQGALPAPRHHVRSPGAGMREGSDRTSSVFFLRPTTDFSFSVAKARSYGLAVDLDMETATFGDWIGTNYVTMHAKNEPQAG
[4]; DAOC to DAC, optimal reaction conditions
  Vmax of the hydroxylase: 0.45 μM of DAC formed per minute per milligram of protein
[3]; crude extract in stabilizing buffer A (15 mM MOPS pH 7.3, 1 mM uric acid, 1 mM mannitol, 0.1M KCl)
  half-life: 72 h
[3]; crude extract, 4° C., 15 mM Tris-HCl buffer, pH 7.5
  half-life: 12 h
[3]; stabilizing buffer A
  improvement of half-life over Tris-HCl buffer: 6 fold
